The record followed here is patent publication US11053251B2, “GPR35 modulators” (Prometheus Biosciences, Inc., priority 2019, dated 2021).

The target in the first assay is Human GPR35 (Homo sapiens, UniProt Q9HC97, S294R). The assay is described as follows: Alternative Beta-Arrestin Assay (JumpIn 294R Tango U2OS cells, LiveBLAzer-FRET B/G). As to conditions: Human GPR35 expressing JumpIn 294R Tango U2OS cells, 5 hours treatment. It is filed as cell-based. As for the experimental part: Human GPR35 expressing JumpIn (Thermo Fisher) 294R Tango U2OS cells were plated in 384-well format in clear bottom plates at a cell density of 10,000 cells/well and allowed to grow overnight. The next day, cells were treated with serially diluted test compounds for 5 hours. LiveBLAzer-FRET B/G (CCF4-AM) detection reagents were then added and cells were allowed to incubate for 2 hours before reading plates on a BioTek Cytation 5 plate reader. Zaprinast was used as a positive control for dose-response curves. In order to determine EC50 values, data w ere fit to a four-parameter dose-response curves.
Human GPR35, sequence (Q9HC97 whole entry S294R): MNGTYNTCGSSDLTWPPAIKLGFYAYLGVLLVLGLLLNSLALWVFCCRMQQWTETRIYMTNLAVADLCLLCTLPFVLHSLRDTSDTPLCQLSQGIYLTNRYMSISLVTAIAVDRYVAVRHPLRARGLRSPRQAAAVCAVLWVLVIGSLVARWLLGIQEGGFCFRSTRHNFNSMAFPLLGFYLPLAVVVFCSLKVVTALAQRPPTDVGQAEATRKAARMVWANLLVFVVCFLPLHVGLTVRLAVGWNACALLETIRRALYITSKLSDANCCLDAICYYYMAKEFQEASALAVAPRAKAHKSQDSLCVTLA
With `CCOc1cc(-c2cc(O)cc(OC(CC)C(=O)O)c2)ccc1-c1nc2[nH]nnc2c(=O)[nH]1` (centres unmarked) [Compound 257, 2-((3′-ethoxy-5-hydroxy-4′-(7-oxo-6,7-dihydro-3H-[1,2,3]triazolo[4,5-d]pyrimidin-5-yl)-[1,1′-biphenyl]-3-yl)oxy)butanoic acid], the EC50 is at most 10 µM. The same measure, in the same setting: under `CCOc1cc(-c2cccc(C[C@H](N)C(=O)O)c2)ccc1-c1nc2[nH]nnc2c(=O)[nH]1` [Compound 274, (S)-2-amino-3-(3′-ethoxy-4′-(7-oxo-6,7-dihydro-3H-[1,2,3]triazolo[4,5-d]pyrimidin-5-yl)-[1,1′-biphenyl]-3-yl)propanoic acid] stands at most 10 µM; under `CCOc1cc(-c2cccc(O[C@@H](C)C(=O)O)c2)ccc1-c1nc2[nH]nnc2c(=O)[nH]1` (single isomer, unassigned) [Compound 252], at most 10 µM; under `CCOc1cc(-c2ccc(C(=O)O)o2)ccc1-c1nc2[nH]nnc2c(=O)[nH]1` [Compound 189, 5-(3-ethoxy-4-(7-oxo-6,7-dihydro-3H-[1,2,3]triazolo[4,5-d]pyrimidin-5-yl)phenyl)furan-2-carboxylic acid], at most 10 µM. `O=c1[nH]c(-c2ccc(-c3nnn[nH]3)cc2O)nc2[nH]nnc12` [Compound 147, 5-(2-hydroxy-4-(1H-tetrazol-5-yl)phenyl)-3,6-dihydro-7H-[1,2,3]triazolo[4,5-d]pyrimidin-7-one] showed a concentration for a half-maximal effect (EC50) of at most 10 µM.

In turn, `CCOc1cc(-c2cccc(/C=C/C(=O)O)c2)ccc1-c1nc2[nH]nnc2c(=O)[nH]1` [Compound 235, (E)-3-(3′-ethoxy-4′-(7-oxo-6,7-dihydro-3H-[1,2,3]triazolo[4,5-d]pyrimidin-5-yl)-[1,1′-biphenyl]-3-yl)acrylic acid] came in with an EC50 of at most 10 µM. On to `CCNc1cc(-c2nc3[nH]nnc3c(=O)[nH]2)ccc1-c1ccc(C(=O)O)cc1` [Compound 292, 2′-(ethylamino)-4′-(7-oxo-6,7-dihydro-3H-[1,2,3]triazolo[4,5-d]pyrimidin-5-yl)-[1,1′-biphenyl]-4-carboxylic acid], for which the EC50 is at most 10 µM. The same measure, in the same setting: with `CCOc1cc(-c2cc(O)cc(O[C@@H](CC)C(=O)O)c2)ccc1-c1nc2[nH]nnc2c(=O)[nH]1` (single isomer, unassigned) [Compound 259] the figure was at most 10 µM. For the compound `CCOc1cc(-c2cccc(OC(C)C(=O)O)c2)ccc1-c1nc2[nH]nnc2c(=O)[nH]1` (racemic) [Compound 212, (±)-2-((3′-Ethoxy-4′-(7-oxo-6,7-dihydro-3H-[1,2,3]triazolo[4,5-d]pyrimidin-5-yl)-[1,1′-biphenyl]-3-yl)oxy)propanoic acid], the EC50 is at most 10 µM. On to `CCOc1cc(-c2cccc(OC(C(=O)O)C(C)C)c2)ccc1-c1nc2[nH]nnc2c(=O)[nH]1` (centres unmarked) [Compound 269, 2-((3′-ethoxy-4′-(7-oxo-6,7-dihydro-3H-[1,2,3]triazolo[4,5-d]pyrimidin-5-yl)-[1,1′-biphenyl]-3-yl)oxy)-3-methylbutanoic acid], for which the EC50 is at most 10 µM. Compound `CCOc1cc(-c2cc(F)c(O)c(F)c2)ccc1-c1nc2[nH]nnc2c(=O)[nH]1` [Compound 203, 5-(3-Ethoxy-3′,5′-difluoro-4′-hydroxy-[1,1′-biphenyl]-4-yl)-3,6-dihydro-7H-[1,2,3]triazolo[4,5-d]pyrimidin-7-one] had an EC50 of at most 10 µM. The compound `CCOc1cc(-c2cccc([C@@H]3C[C@H]3C(=O)O)c2)ccc1-c1nc2[nH]nnc2c(=O)[nH]1` (single isomer, unassigned) [Compound 278, trans-2-(3′-ethoxy-4′-(7-oxo-6,7-dihydro-3H-[1,2,3]triazolo[4,5-d]pyrimidin-5-yl)-[1,1′-biphenyl]-3-yl)cyclopropane-1-carboxylic acid] had an EC50 of at most 10 µM. Compound `O=C(O)CNc1cccc(-c2ccc(-c3nc4[nH]nnc4c(=O)[nH]3)c(OC3CCCC3)c2)c1` [Compound 225, (3′-(Cyclopentyloxy)-4′-(7-oxo-6,7-dihydro-3H-[1,2,3]triazolo[4,5-d]pyrimidin-5-yl)-[1,1′-biphenyl]-3-yl)glycine] came in with an EC50 of at most 10 µM. Compound `CCOc1cc(-c2cccc(C[C@@H](N)C(=O)O)c2)ccc1-c1nc2[nH]nnc2c(=O)[nH]1` [Compound 275, (R)-2-amino-3-(3′-ethoxy-4′-(7-oxo-6,7-dihydro-3H-[1,2,3]triazolo[4,5-d]pyrimidin-5-yl)-[1,1′-biphenyl]-3-yl)propanoic acid] showed an EC50 of at most 10 µM. As for `CCOc1cc(-c2cc(C)cc(O[C@H](C)C(=O)O)c2)ccc1-c1nc2[nH]nnc2c(=O)[nH]1` [Compound 266, (R)-2-((3′-ethoxy-5-methyl-4′-(7-oxo-6,7-dihydro-3H-[1,2,3]triazolo[4,5-d]pyrimidin-5-yl)-[1,1′-biphenyl]-3-yl)oxy)propanoic acid], the EC50 is at most 10 µM. Turning to `O=C(O)c1ccc(-c2ccc(-c3nc4[nH]nnc4c(=O)[nH]3)c(OC3CCCC3)c2)cn1` [Compound 233, 5-(3-(Cyclopentyloxy)-4-(7-oxo-6,7-dihydro-3H-[1,2,3]triazolo[4,5-d]pyrimidin-5-yl)phenyl)picolinic acid], the EC50 was at most 10 µM. `CCOc1cc(-c2ccc(C(=O)OCc3oc(=O)oc3C)cc2)ccc1-c1nc2nn[nH]c2c(=O)[nH]1` [Compound 193, (5-Methyl-2-oxo-1,3-dioxol-4-yl)methyl 3′-ethoxy-4′-(7-oxo-6,7-dihydro-3H-[1,2,3]triazolo[4,5-d]pyrimidin-5-yl)-[1,1′-biphenyl]-4-carboxylate] showed an EC50 of at most 10 µM. For the compound `CCOc1cc(-c2cccc(OC(CC)C(=O)O)c2)ccc1-c1nc2[nH]nnc2c(=O)[nH]1` (centres unmarked) [Compound 247, 2-((3′-ethoxy-4′-(7-oxo-6,7-dihydro-3H-[1,2,3]triazolo[4,5-d]pyrimidin-5-yl)-[1,1′-biphenyl]-3-yl)oxy)butanoic acid], the EC50 is at most 10 µM.

`CCOC(=O)C(Oc1cccc(-c2ccc(-c3nc4[nH]nnc4c(=O)[nH]3)c(OCC)c2)c1)C(C)C` (centres unmarked) [Compound 268, ethyl 2-((3′-ethoxy-4′-(7-oxo-6,7-dihydro-3H-[1,2,3]triazolo[4,5-d]pyrimidin-5-yl)-[1,1′-biphenyl]-3-yl)oxy)-3-methylbutanoate] yielded a half-maximal effective concentration (EC50) of at most 10 µM.

As for `CCOc1cc(-c2cc(OCC(=O)OC)cc(C(=O)OC)c2)ccc1-c1nc2[nH]nnc2c(=O)[nH]1` [Compound 218, Methyl 3′-ethoxy-5-(2-methoxy-2-oxoethoxy)-4′-(7-oxo-6,7-dihydro-3H-[1,2,3]triazolo[4,5-d]pyrimidin-5-yl)-[1,1′-biphenyl]-3-carboxylate], the EC50 was at most 10 µM.

For `CCOc1cc(-c2cccc([C@@H]3C[C@H]3C(=O)O)c2)ccc1-c1nc2[nH]nnc2c(=O)[nH]1` (single isomer, unassigned) [Compound 279, trans-2-(3′-ethoxy-4′-(7-oxo-6,7-dihydro-3H-[1,2,3]triazolo[4,5-d]pyrimidin-5-yl)-[1,1′-biphenyl]-3-yl)cyclopropane-1-carboxylic acid], the EC50 is at most 10 µM.

`O=C(O)c1ccc(O)c(-c2ccc(-c3nc4[nH]nnc4c(=O)[nH]3)c(OC3CCCC3)c2)c1` [Compound 210, 3′-(Cyclopentyloxy)-6-hydroxy-4′-(7-oxo-6,7-dihydro-3H-[1,2,3]triazolo[4,5-d]pyrimidin-5-yl)-[1,1′-biphenyl]-3-carboxylic acid]: the EC50 was at most 10 µM.

`CCOc1cc(-c2cc(OCC(=O)O)cc(C(=O)O)c2)ccc1-c1nc2[nH]nnc2c(=O)[nH]1` [Compound 219, 5-(Carboxymethoxy)-3′-ethoxy-4′-(7-oxo-6,7-dihydro-3H-[1,2,3]triazolo[4,5-d]pyrimidin-5-yl)-[1,1′-biphenyl]-3-carboxylic acid] came in with an EC50 of at most 10 µM. `O=C(O)c1ccc(-c2ccc(-c3nc4[nH]nnc4c(=O)[nH]3)cc2[N+](=O)[O-])cc1` [Compound 286, 2′-nitro-4′-(7-oxo-6,7-dihydro-3H-[1,2,3]triazolo[4,5-d]pyrimidin-5-yl)-[1,1′-biphenyl]-4-carboxylic acid] displayed an EC50 of at most 10 µM. Still for that read-out and setting: under `CCOc1cc(-c2ccc(OC)c(/C=C(\C)C(=O)O)c2)ccc1-c1nc2[nH]nnc2c(=O)[nH]1` [Compound 315, (E)-3-(3′-ethoxy-4-methoxy-4′-(7-oxo-6,7-dihydro-3H-[1,2,3]triazolo[4,5-d]pyrimidin-5-yl)-[1,1′-biphenyl]-3-yl)-2-methylacrylic acid] stands at most 10 µM.

As for `CCOc1cc(-c2cccc([C@H]3C[C@H]3C(=O)O)c2)ccc1-c1nc2[nH]nnc2c(=O)[nH]1` (single isomer, unassigned) [Compound 307, Cis-2-(3′-ethoxy-4′-(7-oxo-6,7-dihydro-3H-[1,2,3]triazolo[4,5-d]pyrimidin-5-yl)-[1,1′-biphenyl]-3-yl)cyclopropane-1-carboxylic acid], the EC50 is at most 10 µM. `CCOc1cc(-c2cccc(C(=O)O)c2F)ccc1-c1nc2[nH]nnc2c(=O)[nH]1` [Compound 186, 3′-ethoxy-2-fluoro-4′-(7-oxo-6,7-dihydro-3H-[1,2,3]triazolo[4,5-d]pyrimidin-5-yl)-[1,1′-biphenyl]-3-carboxylic acid] came in with an EC50 of at most 10 µM.

The compound `CCCNc1cc(-c2nc3[nH]nnc3c(=O)[nH]2)ccc1-c1ccc(C(=O)O)cc1` [Compound 291, 4′-(7-oxo-6,7-dihydro-3H-[1,2,3]triazolo[4,5-d]pyrimidin-5-yl)-2′-(propylamino)-[1,1′-biphenyl]-4-carboxylic acid] returned an EC50 of at most 10 µM.

The assay is the same for the next values; noted with them: at 50 μM; Table 2.
As to `CCOc1cc(-c2ccc(OCc3ccc(OC)cc3)c(NCC(=O)OC(C)(C)C)c2)ccc1-c1nc2[nH]nnc2c(=O)[nH]1` [Compound 221, tert-butyl (3′-ethoxy-4-((4-methoxybenzyl)oxy)-4′-(7-oxo-6,7-dihydro-3H-[1,2,3]triazolo[4,5-d]pyrimidin-5-yl)-[1,1′-biphenyl]-3-yl)glycinate], the “% inhibition at 50 μM” value is recorded as 57% inhibition at.

The EC50 is the concentration needed to bring the measured effect to its halfway point. Higher therefore signals lower potency in that assay.
